Data set [1] in a line: in vitro. As to conditions: CD-1, mouse, plasma.
Description: Stability in CD-1 mouse plasma assessed as half life
A short description of data set [2]: in vitro. As to conditions: Sprague-Dawley, rat, plasma.
Description: Stability in Sprague-Dawley rat plasma assessed as half life
Data set [3] is described as follows: in vitro. As to conditions: human, plasma.
Description: Stability in human plasma assessed as half life
Data set [4] in a line: Half life in CD-1 mouse at 0.5 mg/kg, iv measured after 24 hrs by LC-MS analysis. It is filed as ADME, organism-based. The note with it: in vivo.
A short description of data set [5]: AUC in CD-1 mouse at 0.5 mg/kg, iv measured after 24 hrs by LC-MS analysis. As to conditions: in vivo. The data set is classed as ADME, organism-based. Also on record: time 24 hrs, dose 0.5 mg/kg, route iv.
The nature of data set [6]: AUC in CD-1 mouse at 5 mg/kg, po measured after 24 hrs by LC-MS analysis. It is filed as ADME, organism-based. On the set-up: dose 5 mg/kg, time 24 hrs, route po. As to conditions: in vivo.
Data set [7] is described as follows: Cmax in CD-1 mouse at 5 mg/kg, po measured after 24 hrs by LC-MS analysis. The data set is classed as ADME, organism-based. Also on record: time 24 hrs, dose 5 mg/kg, route po. As to conditions: in vivo.
The nature of data set [8]: Tmax in CD-1 mouse at 5 mg/kg, po measured after 24 hrs by LC-MS analysis. The data set is classed as ADME, organism-based. As to conditions: in vivo.
The nature of data set [9]: Half life in CD-1 mouse at 5 mg/kg, po measured after 24 hrs by LC-MS analysis. It is filed as ADME, organism-based. The note with it: in vivo.
The nature of data set [10]: Oral bioavailability in CD-1 mouse at 5 mg/kg measured after 24 hrs by LC-MS analysis. The data set is classed as ADME, organism-based. The note with it: in vivo.

For the compound `C[C@@H]1CNc2c(cccc2S(=O)(=O)N[C@@H](CCCNC(=N)N)C(=O)N2CC[C@@H](C)C[C@@H]2C(=O)O)C1`, the half-life in the data set “in vitro [1]”, in “in vitro [2]” and in the data set “in vitro [3]” was > 120 min in each case.

In the case of `CC(C)(C)C(=O)n1nc(C2CCCNC2)cc1NCc1ccc(Cl)s1` (stereo unspecified), the half-life (as a rule, how long it takes for the measured level to halve) in “in vitro [1]” stood at 910 min.

As for `O=C(c1ccsc1)n1nc(-c2ccccc2F)nc1NCc1cccs1`, in the data set “in vitro [3]”, the half-life is 69 min.

In “in vitro [1]”, `CC(C)(CO)C(=O)n1nc(C2CCNCC2)c(F)c1NCc1ccc(Cl)s1` gave a half-life of 44 min.

On to `COc1ccccc1C(=O)n1nc(-c2ccccn2)nc1NCc1ccc(Cl)s1`, for which the half-life came to 4.1 min in the data set “in vitro [1]”, 1.5 min in “in vitro [2]” and 30 min in “in vitro [3]”.

`CC(C)(C)C(=O)n1nc(-c2ccc[nH]c2=O)cc1NCc1ccc(Cl)s1`: the half-life is 42 min in data set [4], 354 min in data set [9] and 350 min in “in vitro [1]”. Moreover, the AUC (usually concentration integrated over time) at 24 h in [5] was determined as 0.3 µg·h/mL; in [6], 0.713 µg·h/mL. Further, in data set [7], the Cmax (usually the highest concentration seen after dosing) amounted to 0.127 µg/mL. Further, in [8], the Tmax (commonly the time at which the peak concentration occurs) was determined as 42 min. The bioavailability (commonly dose-corrected exposure relative to a reference, in per cent) in data set [10] amounted to 22.8%.

In the data set “in vitro [3]”, `COc1ccccc1C(=O)n1nc(-c2ccccc2F)nc1NCc1cccs1` came in with a half-life of 48 min.

In the case of `CC(C)(C)C(=O)n1nc(-c2cccnn2)cc1NCc1ccc(Cl)s1`, the half-life in the data set “in vitro [3]” is 51 min.

Turning to `COc1ccccc1C(=O)n1nc(C2CCOCC2)cc1NCc1ccc(Cl)s1`, the half-life in the data set “in vitro [1]” stood at 160 min.

Turning to `COc1ccccc1C(=O)n1nc(C2CCNCC2)cc1NCc1ccc(Cl)s1`, the half-life in the data set “in vitro [1]” was determined as 43 min.
